# Source: patent US11407822B2, “Treatment of fibrodysplasia ossificans progressiva” (REGENERON PHARMACEUTICALS, INC., priority 2014, dated 2022)
# Assays:
# [1] = system: Acvr1[R206H]COIN/+; Gt(ROSA26)SorCreERt2/+ mice; assay: Example 2: ectopic bone formation in a mouse model of FOP after tamoxifen, in vivo μCT (ACVR1 kinase inhibitor); settings: for mice showing ectopic bone formation / size of ectopic bone lesions: 3 mg/kg twice daily for 4 weeks; for mice showing ectopic bone formation: 4 weeks post initiation of tamoxifen, μCT; for size of ectopic bone lesions: versus vehicle control group
# Text: (§1) ACVR1 and/or ACVR2 antagonists and variants or fragments thereof can also be screened for activity in an in vivo assay. For example, ACVR1 or ACVR2 antagonists or variants thereof can be screened for their ability to treat FOP in a mouse model of FOP (e.g., ability to decrease ectopic bone formation). Transgenic knock-in mice have been developed that carry a conditional allele encoding Acvr1[R206H]. These Acvr1^[R206H]COIN/+ mice are described in U.S. Ser. No. 14/207,320 and PCT/US2014/026582, which are incorporated by reference herein in its entirety. This allele expresses the R206H variant only after activation by Cre recombinase. This allows Cre-dependent activation of Acvr1[R206H] expression at specific tissues and at specific time by using different types of Cre driver lines. In this manner the resulting mice also bypass the perinatal lethality that has been observed with a non-regulated knock-in allele of Acvr1[R206H]. Activation of Acvr1[R206H] expression in young or in adult mice results in ectopic bone formation. […] Tamoxifen activates expression of Cre which then acts upon the Acvr1^[R206H]COIN/+ to convert it to Acvr1^[R206H]/+, thereby converting the genotype of the mice to mirror the genotype of the FOP patients that are ACVR1[R206H]. The Acvr1^[R206H] allele expresses Acvr1[R206H], and that is adequate to drive the development of FOP in the Acvr1^[R206H]/+; Gt(ROSA26)Sor^CreERt2/+ mice. This bypasses the embryonic lethality experienced with conventional Acvr1^[R206H] knock-in mice, Acvr1^tm1Emsh (http://www.informatics.jax.org/allele/key/828153). After tamoxifen treatment, the ACVR1, ACVR2A and/or ACVR2B antagonists or a control can be administered to the Acvr1^[R206H]COIN/+; Gt(ROSA26)Sor^CreERt2/+ mice and the animals monitored for ectopic bone formation. See Chakkalakal S A, et al. (20120 An Acvr1 R206H knock-in mouse has fibrodysplasia ossificans progressiva. J Bone Miner Res. 27(8):1746-56. This assay is described in detail in the Examples below.
# 16 Acvr1^[R206H]COIN/+; Gt(ROSA26)Sor^CreERt2/+ mice were given tamoxifen at 1 mg/mouse dose i.p. for eight days. Eight mice were treated with 3 mg/kg of the ACVR1 kinase inhibitor LDN-212854 (Mohedas et al. (2013) ACS Chem. Biol. 8:1291-1302) twice daily for 4 weeks. Eight mice were treated with vehicle control twice daily for 4 weeks. Mice were monitored using in vivo μCT at baseline, 2 and 4 weeks post initiation of tamoxifen administration.
# [2] = system: Acvr1[R206H]COIN/+; Gt(ROSA26)SorCreERt2/+ mice; assay: Example 4: ectopic bone formation in a mouse model of FOP after tamoxifen, in vivo μCT (Activin A antibody, Acvr2a/Acvr2b antibody); settings: for protection from / inhibition of ectopic bone formation after tamoxifen treatment: mouse, in vivo
# Text: as §1, with “See Chakkalakal S A, et al. (20120 An Acvr1 R206H knock-in mouse has fibrodysplasia ossificans progressiva. J Bone Miner Res. 27(8):1746-56. This assay is described in detail in the Examples below.” left out
# 26 Acvr1[R206H]COIN/+; Gt(ROSA26)SorCreERt2/+ mice were given with tamoxifen at a 40 mg/kg dose i.p. for eight days. […] Mice were monitored using in vivo μCT at baseline, 2, 3 and 4 weeks post initiation of tamoxifen administration. […]
# [3] = system: Activin A mediated signaling through ACVR2A and/or ACVR2B; settings: as described for the antibody in US2015/0037339 or U.S. Pat. No. 8,309,082; cited from earlier work
# [4] = molecular target: T1, Activin A binding to ACVR2A or ACVR2B (Homo sapiens, UniProt P08476); settings: as described for the antibody in US2015/0037339 or U.S. Pat. No. 8,309,082; cited from earlier work
# T1 sequence (P08476 311-426): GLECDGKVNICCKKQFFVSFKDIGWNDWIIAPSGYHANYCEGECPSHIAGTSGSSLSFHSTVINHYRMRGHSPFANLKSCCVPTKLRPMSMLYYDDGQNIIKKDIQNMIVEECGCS
# [5] = system: Acvr1[R206H]COIN/+; Gt(ROSA26)SorCreERt2/+ mice; assay: Example 5: ectopic bone formation in a mouse model of FOP after tamoxifen, in vivo μCT, dose comparison of Activin A antibody; settings: for mice that developed ectopic bone: nine mice, after 4 weeks, μCT; for average total volume of ectopic bone: at 6.5 weeks, calculated from μCT images
# Text: as §1
# 35 Acvr1[R206H]COIN/+; Gt(ROSA26)SorCreERt2/+ mice were given with tamoxifen at 40 mg/kg i.p. for eight days. Eight mice were treated with 25 mg/kg isotype control antibody (REGN1945), nine mice were treated with 25 mg/kg of Activin A antibody (H4H10446P) (REGN2477), nine mice were treated with 10 mg/kg of Activin A antibody (REGN2477) and nine mice were treated with 1 mg/kg of Activin A antibody (REGN2477) weekly for 6 weeks. Mice were monitored using in vivo μCT at baseline, 2, 3, 4 and 6.5 weeks post initiation of tamoxifen administration. The volume of ectopic bone in each mouse was calculated from μCT images. […] At 6.5 weeks the average total volume of ectopic bone in the isotype treated group was 65.4 mm3 compared to 1.87 mm^3 in the 25 mg/kg, 0.3 mm^3 in the 10 mg/kg and 7.3 mm^3 in the 1 mg/kg Activin antibody treated groups.
# [6] = system: Acvr1[R206H]COIN/+; Gt(ROSA26)SorCreERt2/+ mice; assay: Example 3: ectopic bone formation in a mouse model of FOP after tamoxifen, in vivo μCT (Activin A antibody, ACVR2a-Fc)
# Text: ACVR1 and/or ACVR2 antagonists and variants or fragments thereof can also be screened for activity in an in vivo assay. For example, ACVR1 or ACVR2 antagonists or variants thereof can be screened for their ability to treat FOP in a mouse model of FOP (e.g., ability to decrease ectopic bone formation). Transgenic knock-in mice have been developed that carry a conditional allele encoding Acvr1[R206H]. These Acvr1^[R206H]COIN/+ mice are described in U.S. Ser. No. 14/207,320 and PCT/US2014/026582, which are incorporated by reference herein in its entirety. This allele expresses the R206H variant only after activation by Cre recombinase. This allows Cre-dependent activation of Acvr1[R206H] expression at specific tissues and at specific time by using different types of Cre driver lines. […] After tamoxifen treatment, the ACVR1, ACVR2A and/or ACVR2B antagonists or a control can be administered to the Acvr1^[R206H]COIN/+; Gt(ROSA26)Sor^CreERt2/+ mice and the animals monitored for ectopic bone formation. […]
# 23 Acvr1^[R206H]COIN/+; Gt(ROSA26)^SorCreERt2/+ mice were treated with tamoxifen at 1 mg/mouse dose i.p. for eight days. […] Mice were monitored using in vivo micro computer tomography (μCT) at baseline, 2 and 3 weeks post initiation of tamoxifen administration. […]
Molecule,mice showing ectopic bone formation [1],mice showing ectopic bone formation ([1]; listed as LDN212854),size of ectopic bone lesions [1],size of ectopic bone lesions ([1]; listed as LDN212854),protection from ectopic bone formation after tamoxifen treatment ([1]; LDN-212854 treatment),"mice that developed ectopic bone ([2]; 10 mg/kg twice weekly, nine mice per group, 4 weeks post initiation of tamoxifen, μCT)",protection from / inhibition of ectopic bone formation after tamoxifen treatment ([2]; listed as Activin A),protection from / inhibition of ectopic bone formation after tamoxifen treatment ([2]; listed as antibody against Activin A),inhibition of Activin A signal transduction through ACVR2A and/or ACVR2B [3],inhibition of Activin A binding to ACVR2A and/or ACVR2B [4],mice that developed ectopic bone ([5]; 1 mg/kg weekly),average total volume of ectopic bone ([5]; 1 mg/kg weekly),mice that developed ectopic bone ([5]; 10 mg/kg weekly),average total volume of ectopic bone ([5]; 10 mg/kg weekly),mice that developed ectopic bone ([5]; 25 mg/kg weekly),average total volume of ectopic bone ([5]; 25 mg/kg weekly),"effectiveness of varying doses against ectopic bone formation (FIG. 5) ([5]; doses 1, 10 and 25 mg/kg versus isotype control antibody)","protection from ectopic bone formation after tamoxifen treatment ([5]; mouse, in vivo)","mice showing development of ectopic bone ([6]; 25 mg/kg twice weekly, eight mice, 3 weeks post initiation of tamoxifen, μCT)",inhibition of formation of ectopic bone nodules (FIG. 3) ([6]; compared with isotype control antibody and ACVR2A-Fc)
c1cc(-c2cnn3cc(-c4ccc(N5CCNCC5)cc4)cnc23)c2cccnc2c1 [LDN-212854],3 out of 8,"No ectopic bone nodules could be detected in mice numbered 10, 11, 14, 15 or 16",small compared to the vehicle control group,"Small ectopic bone nodules have formed in mice numbered 9, 12 and 13",protected from ectopic bone formation,–,–,–,–,–,–,–,–,–,–,–,–,–,–,–
H4H10446P: Antibody against Activin A designated H4H10446P in US2015037339; heavy and light chain variable regions present SEQ ID NOs:1 and 5,–,–,–,–,–,one,protected from ectopic bone formation,inhibited formation of ectopic bone nodules,inhibits Activin A mediated signaling through ACVR2A and/or ACVR2B,"does not inhibit strongly, if at all",2 mice,7.3 mm^3,2 mice,0.3 mm^3,2 mice,1.87 mm^3,Dosages between 1 mg/kg and 25 mg/kg were shown to be effective with 10 mg/kg being the most effective dose tested,protected from ectopic bone formation,none,inhibited formation of ectopic bone nodules most effectively
